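Assay format: 96-well plates, 48-hour exposure. The concentration for 50% growth inhibition is given as GI50. TGI is the concentration that stops growth completely.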
Key:
Assay in all cases: NCI-60 cell line screen, 48 h
HL-60(TB) leukemia = system: HL-60(TB) leukemia
A498 renal = system: A498 renal
COLO 205 colon = system: COLO 205 colon
SK-MEL-5 melanoma = system: SK-MEL-5 melanoma
K-562 leukemia = system: K-562 leukemia
TK-10 renal = system: TK-10 renal
PC-3 prostate = system: PC-3 prostate
SF-295 CNS = system: SF-295 CNS
U251 CNS = system: U251 CNS
SK-MEL-28 melanoma = system: SK-MEL-28 melanoma
HOP-62 NSCLC = system: HOP-62 NSCLC
M14 melanoma = system: M14 melanoma
BT-549 breast = system: BT-549 breast
IGROV1 ovarian = system: IGROV1 ovarian
MCF7 breast = system: MCF7 breast
HT29 colon = system: HT29 colon
SF-539 CNS = system: SF-539 CNS
CAKI-1 renal = system: CAKI-1 renal
RXF 393 renal = system: RXF 393 renal
DU-145 prostate = system: DU-145 prostate
MDA-MB-435 = system: MDA-MB-435
NCI-H226 lung = system: NCI-H226 lung
T-47D breast = system: T-47D breast
UACC-62 melanoma = system: UACC-62 melanoma
KM12 colon = system: KM12 colon
SN12C renal = system: SN12C renal
HOP-92 NSCLC = system: HOP-92 NSCLC
OVCAR-4 ovarian = system: OVCAR-4 ovarian
OVCAR-5 ovarian = system: OVCAR-5 ovarian
A549 NSCLC = system: A549 NSCLC
HCT-116 colon = system: HCT-116 colon
LOX IMVI melanoma = system: LOX IMVI melanoma
MDA-MB-231 breast = system: MDA-MB-231 breast
OVCAR-3 ovarian = system: OVCAR-3 ovarian
786-0 renal = system: 786-0 renal
SNB-19 CNS = system: SNB-19 CNS
NCI-H460 lung = system: NCI-H460 lung
NCI-H23 lung = system: NCI-H23 lung
RPMI-8226 leukemia = system: RPMI-8226 leukemia
CCRF-CEM leukemia = system: CCRF-CEM leukemia
HCC-2998 colon = system: HCC-2998 colon
UO-31 renal = system: UO-31 renal
HCT-15 colon = system: HCT-15 colon
MOLT-4 leukemia = system: MOLT-4 leukemia
SF-268 CNS = system: SF-268 CNS
MALME-3M melanoma = system: MALME-3M melanoma
SK-MEL-2 melanoma = system: SK-MEL-2 melanoma
SK-OV-3 ovarian = system: SK-OV-3 ovarian
ACHN renal = system: ACHN renal
SR leukemia = system: SR leukemia
OVCAR-8 ovarian = system: OVCAR-8 ovarian
HS 578T breast = system: HS 578T breast
UACC-257 melanoma = system: UACC-257 melanoma
EKVX NSCLC = system: EKVX NSCLC
SW-620 colon = system: SW-620 colon
SNB-75 CNS = system: SNB-75 CNS
NCI-H522 lung = system: NCI-H522 lung
NCI/ADR-RES ovarian = system: NCI/ADR-RES ovarian

Q: For `COc1cccc(-n2ncc3c(N/N=C/c4ccc(F)cc4)ncnc32)c1`, which GI50 (HL-60(TB) leukemia) is on record?
A: > 25 µM

Q: And the TGI (HL-60(TB) leukemia)?
A: > 25 µM

Q: What about the GI50 (A498 renal) of the same molecule?
A: > 16.1 µM

Q: And the TGI (A498 renal)?
A: > 25 µM

Q: What about the GI50 (COLO 205 colon) of the same molecule?
A: > 25 µM

Q: What about the TGI (COLO 205 colon) of the same molecule?
A: > 25 µM

Q: What about the GI50 (SK-MEL-5 melanoma) of the same molecule?
A: 14.7 µM

Q: And the TGI (SK-MEL-5 melanoma)?
A: > 25 µM

Q: What about the GI50 (K-562 leukemia) of the same molecule?
A: > 25 µM

Q: What about the TGI (K-562 leukemia) of the same molecule?
A: > 25 µM

Q: And the GI50 (TK-10 renal)?
A: 12.4 µM

Q: What about the TGI (TK-10 renal) of the same molecule?
A: > 23.3 µM

Q: And the GI50 (PC-3 prostate)?
A: > 25 µM

Q: What about the TGI (PC-3 prostate) of the same molecule?
A: > 25 µM

Q: What about the GI50 (SF-295 CNS) of the same molecule?
A: > 25 µM

Q: What about the TGI (SF-295 CNS) of the same molecule?
A: > 25 µM

Q: And the GI50 (U251 CNS)?
A: 8.81 µM

Q: What about the TGI (U251 CNS) of the same molecule?
A: > 21.9 µM

Q: What about the GI50 (SK-MEL-28 melanoma) of the same molecule?
A: > 25 µM

Q: What about the TGI (SK-MEL-28 melanoma) of the same molecule?
A: > 25 µM

Q: What about the GI50 (HOP-62 NSCLC) of the same molecule?
A: 16.7 µM

Q: What about the TGI (HOP-62 NSCLC) of the same molecule?
A: > 25 µM

Q: And the GI50 (M14 melanoma)?
A: > 23.6 µM

Q: And the TGI (M14 melanoma)?
A: > 25 µM

Q: What about the GI50 (BT-549 breast) of the same molecule?
A: > 25 µM

Q: And the TGI (BT-549 breast)?
A: > 25 µM

Q: What about the GI50 (IGROV1 ovarian) of the same molecule?
A: > 25 µM

Q: And the TGI (IGROV1 ovarian)?
A: > 25 µM

Q: What about the GI50 (MCF7 breast) of the same molecule?
A: > 17 µM

Q: What about the TGI (MCF7 breast) of the same molecule?
A: > 25 µM

Q: What about the GI50 (HT29 colon) of the same molecule?
A: > 25 µM

Q: And the TGI (HT29 colon)?
A: > 25 µM

Q: And the GI50 (SF-539 CNS)?
A: 13.9 µM

Q: What about the TGI (SF-539 CNS) of the same molecule?
A: > 25 µM

Q: What about the GI50 (CAKI-1 renal) of the same molecule?
A: > 18.7 µM

Q: And the TGI (CAKI-1 renal)?
A: > 25 µM

Q: And the GI50 (RXF 393 renal)?
A: 10.6 µM

Q: What about the TGI (RXF 393 renal) of the same molecule?
A: 24.9 µM

Q: And the GI50 (DU-145 prostate)?
A: 17.4 µM

Q: What about the TGI (DU-145 prostate) of the same molecule?
A: > 25 µM

Q: What about the GI50 (MDA-MB-435) of the same molecule?
A: 14.5 µM

Q: What about the TGI (MDA-MB-435) of the same molecule?
A: > 25 µM

Q: What about the GI50 (NCI-H226 lung) of the same molecule?
A: > 25 µM

Q: What about the TGI (NCI-H226 lung) of the same molecule?
A: > 25 µM

Q: What about the GI50 (T-47D breast) of the same molecule?
A: 11.6 µM

Q: And the TGI (T-47D breast)?
A: > 25 µM

Q: And the GI50 (UACC-62 melanoma)?
A: > 25 µM

Q: And the TGI (UACC-62 melanoma)?
A: > 25 µM

Q: What about the GI50 (KM12 colon) of the same molecule?
A: 18.4 µM

Q: What about the TGI (KM12 colon) of the same molecule?
A: > 25 µM

Q: And the GI50 (SN12C renal)?
A: 23 µM

Q: What about the TGI (SN12C renal) of the same molecule?
A: > 25 µM

Q: What about the GI50 (HOP-92 NSCLC) of the same molecule?
A: 6.48 µM

Q: What about the TGI (HOP-92 NSCLC) of the same molecule?
A: 19.9 µM

Q: And the GI50 (OVCAR-4 ovarian)?
A: 6.55 µM

Q: What about the TGI (OVCAR-4 ovarian) of the same molecule?
A: 14.5 µM

Q: And the GI50 (OVCAR-5 ovarian)?
A: > 25 µM

Q: And the TGI (OVCAR-5 ovarian)?
A: > 25 µM

Q: What about the GI50 (A549 NSCLC) of the same molecule?
A: 11.6 µM

Q: What about the TGI (A549 NSCLC) of the same molecule?
A: > 25 µM

Q: What about the GI50 (HCT-116 colon) of the same molecule?
A: 10.2 µM

Q: And the TGI (HCT-116 colon)?
A: > 25 µM

Q: And the GI50 (LOX IMVI melanoma)?
A: > 25 µM

Q: What about the TGI (LOX IMVI melanoma) of the same molecule?
A: > 25 µM

Q: What about the GI50 (MDA-MB-231 breast) of the same molecule?
A: 8.59 µM

Q: And the TGI (MDA-MB-231 breast)?
A: > 25 µM

Q: What about the GI50 (OVCAR-3 ovarian) of the same molecule?
A: 5.27 µM

Q: What about the TGI (OVCAR-3 ovarian) of the same molecule?
A: 10.3 µM

Q: And the GI50 (786-0 renal)?
A: 11.8 µM

Q: What about the TGI (786-0 renal) of the same molecule?
A: > 19.5 µM

Q: What about the GI50 (SNB-19 CNS) of the same molecule?
A: 24.5 µM

Q: What about the TGI (SNB-19 CNS) of the same molecule?
A: > 25 µM

Q: And the GI50 (NCI-H460 lung)?
A: 10.3 µM

Q: What about the TGI (NCI-H460 lung) of the same molecule?
A: 24.7 µM

Q: What about the GI50 (NCI-H23 lung) of the same molecule?
A: > 20.1 µM

Q: And the TGI (NCI-H23 lung)?
A: > 25 µM

Q: What about the GI50 (RPMI-8226 leukemia) of the same molecule?
A: > 25 µM

Q: And the TGI (RPMI-8226 leukemia)?
A: > 25 µM

Q: What about the GI50 (CCRF-CEM leukemia) of the same molecule?
A: > 25 µM

Q: And the TGI (CCRF-CEM leukemia)?
A: > 25 µM

Q: What about the GI50 (HCC-2998 colon) of the same molecule?
A: > 25 µM

Q: What about the TGI (HCC-2998 colon) of the same molecule?
A: > 25 µM

Q: And the GI50 (UO-31 renal)?
A: > 14.6 µM

Q: What about the TGI (UO-31 renal) of the same molecule?
A: > 25 µM

Q: What about the GI50 (HCT-15 colon) of the same molecule?
A: > 25 µM

Q: What about the TGI (HCT-15 colon) of the same molecule?
A: > 25 µM

Q: What about the GI50 (MOLT-4 leukemia) of the same molecule?
A: > 25 µM

Q: What about the TGI (MOLT-4 leukemia) of the same molecule?
A: > 25 µM

Q: And the GI50 (SF-268 CNS)?
A: > 25 µM

Q: And the TGI (SF-268 CNS)?
A: > 25 µM

Q: And the GI50 (MALME-3M melanoma)?
A: 11.3 µM

Q: What about the TGI (MALME-3M melanoma) of the same molecule?
A: > 25 µM

Q: And the GI50 (SK-MEL-2 melanoma)?
A: > 25 µM

Q: What about the TGI (SK-MEL-2 melanoma) of the same molecule?
A: > 25 µM

Q: What about the GI50 (SK-OV-3 ovarian) of the same molecule?
A: 13.6 µM

Q: What about the TGI (SK-OV-3 ovarian) of the same molecule?
A: > 25 µM

Q: And the GI50 (ACHN renal)?
A: > 25 µM

Q: What about the TGI (ACHN renal) of the same molecule?
A: > 25 µM

Q: And the GI50 (SR leukemia)?
A: > 25 µM

Q: What about the TGI (SR leukemia) of the same molecule?
A: > 25 µM

Q: What about the GI50 (OVCAR-8 ovarian) of the same molecule?
A: 14.8 µM

Q: And the TGI (OVCAR-8 ovarian)?
A: > 25 µM

Q: What about the GI50 (HS 578T breast) of the same molecule?
A: 7.51 µM

Q: What about the TGI (HS 578T breast) of the same molecule?
A: 22.1 µM

Q: And the GI50 (UACC-257 melanoma)?
A: > 25 µM

Q: What about the TGI (UACC-257 melanoma) of the same molecule?
A: > 25 µM

Q: What about the GI50 (EKVX NSCLC) of the same molecule?
A: > 25 µM

Q: And the TGI (EKVX NSCLC)?
A: > 25 µM

Q: And the GI50 (SW-620 colon)?
A: 24.3 µM

Q: And the TGI (SW-620 colon)?
A: > 25 µM

Q: And the GI50 (SNB-75 CNS)?
A: 5.98 µM

Q: What about the TGI (SNB-75 CNS) of the same molecule?
A: > 18.6 µM

Q: And the GI50 (NCI-H522 lung)?
A: > 19.1 µM

Q: And the TGI (NCI-H522 lung)?
A: > 25 µM

Q: And the GI50 (NCI/ADR-RES ovarian)?
A: 14.2 µM

Q: And the TGI (NCI/ADR-RES ovarian)?
A: > 25 µM

— PubChem BioAssay (NCI)
